In ChEMBL document CHEMBL1201862, “PubChem BioAssay data set” (2004):
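Briefly, cells in 96-well plates were exposed to five compound concentrations for 48 h, and endpoints were estimated by linear interpolation. GI50: concentration for 50% inhibition of growth.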 Activity calls are given as the source filed them. Cut-off read from the data, not from the text of the source: active = GI50 up to about 1.1 µM and inactive = higher.

Legend:
Assay in all cases: NCI tumour cell line growth inhibition, 48 h
SN12C = system: SN12C
SK-MEL-5 = system: SK-MEL-5
HCT-15 = system: HCT-15
SK-OV-3 = system: SK-OV-3
SF-539 = system: SF-539
UACC-62 = system: UACC-62
U-251 = system: U-251
CAKI-1 = system: CAKI-1
NCI/ADR-RES = system: NCI/ADR-RES
M14 = system: M14
BT-549 = system: BT-549
SK-MEL-28 = system: SK-MEL-28
ACHN = system: ACHN
MCF7 = system: MCF7
HCT-116 = system: HCT-116
SF-268 = system: SF-268
HL-60 = system: HL-60
A549 = system: A549
RPMI-8226 = system: RPMI-8226
CCRF-CEM = system: CCRF-CEM
OVCAR-5 = system: OVCAR-5
T47D = system: T47D
MDA-MB-435 = system: MDA-MB-435
NCI-H23 = system: NCI-H23
COLO 205 = system: COLO 205
MDA-MB-231 = system: MDA-MB-231
NCI-H226 = system: NCI-H226
MOLT-4 = system: MOLT-4
HCC 2998 = system: HCC 2998
SR = system: SR
MDA-N = system: MDA-N
TK-10 = system: TK-10
OVCAR-8 = system: OVCAR-8
KM12 = system: KM12
UACC-257 = system: UACC-257
HT-29 = system: HT-29
Malme-3M = system: Malme-3M
EKVX = system: EKVX
A498 = system: A498
HOP-92 = system: HOP-92
HOP-62 = system: HOP-62
SW-620 = system: SW-620
SK-MEL-2 = system: SK-MEL-2
786-0 = system: 786-0
OVCAR-3 = system: OVCAR-3
K562 = system: K562
UO-31 = system: UO-31
PC-3 = system: PC-3
SF-295 = system: SF-295
SNB-19 = system: SNB-19
NCI-H522 = system: NCI-H522
NCI-H460 = system: NCI-H460
RXF 393 = system: RXF 393
OVCAR-4 = system: OVCAR-4
IGROV-1 = system: IGROV-1
LOX IMVI = system: LOX IMVI
DU-145 = system: DU-145
Hs-578T = system: Hs-578T
SNB-75 = system: SNB-75

COc1c2occc2c(OC)c2c(=O)c(S(=O)(=O)NC(=O)Nc3ccc(Cl)cc3)coc12
GI50 (SN12C): > 10 µM (inactive)
GI50 (SK-MEL-5): > 10 µM (inactive)
GI50 (HCT-15): > 10 µM
GI50 (SK-OV-3): > 10 µM (inactive)
GI50 (SF-539): > 10 µM (inactive)
GI50 (UACC-62): > 10 µM (inactive)
GI50 (U-251): > 10 µM (inactive)
GI50 (CAKI-1): > 10 µM (inactive)
GI50 (NCI/ADR-RES): > 10 µM (inactive)
GI50 (M14): > 10 µM (inactive)
GI50 (BT-549): > 10 µM (inactive)
GI50 (SK-MEL-28): > 10 µM (inactive)
GI50 (ACHN): > 10 µM (inactive)
GI50 (MCF7): > 10 µM (inactive)
GI50 (HCT-116): > 10 µM (inactive)
GI50 (SF-268): > 10 µM (inactive)
GI50 (HL-60): > 10 µM (inactive)
GI50 (A549): > 10 µM (inactive)
GI50 (RPMI-8226): > 10 µM (inactive)
GI50 (CCRF-CEM): > 10 µM (inactive)
GI50 (OVCAR-5): > 10 µM (inactive)
GI50 (T47D): > 10 µM (inactive)
GI50 (MDA-MB-435): > 10 µM (inactive)
GI50 (NCI-H23): > 10 µM (inactive)
GI50 (COLO 205): > 10 µM (inactive)
GI50 (MDA-MB-231): > 10 µM (inactive)
GI50 (NCI-H226): > 10 µM (inactive)
GI50 (MOLT-4): > 10 µM (inactive)
GI50 (HCC 2998): > 10 µM (inactive)
GI50 (SR): > 10 µM (inactive)
GI50 (MDA-N): > 10 µM (inactive)
GI50 (TK-10): > 10 µM (inactive)
GI50 (OVCAR-8): > 10 µM (inactive)
GI50 (KM12): > 10 µM (inactive)
GI50 (UACC-257): > 10 µM (inactive)
GI50 (HT-29): > 10 µM (inactive)
GI50 (Malme-3M): > 10 µM (inactive)
GI50 (EKVX): > 10 µM (inactive)
GI50 (A498): > 10 µM (inactive)
GI50 (HOP-92): > 10 µM (inactive)
GI50 (HOP-62): > 10 µM (inactive)
GI50 (SW-620): > 10 µM (inactive)
GI50 (SK-MEL-2): > 10 µM (inactive)
GI50 (786-0): > 10 µM (inactive)
GI50 (OVCAR-3): > 10 µM (inactive)
GI50 (K562): > 10 µM (inactive)
GI50 (UO-31): > 10 µM (inactive)
GI50 (PC-3): > 10 µM (inactive)
GI50 (SF-295): > 10 µM (inactive)
GI50 (SNB-19): > 10 µM (inactive)
GI50 (NCI-H522): > 10 µM (inactive)
GI50 (NCI-H460): > 10 µM (inactive)
GI50 (RXF 393): > 10 µM (inactive)
GI50 (OVCAR-4): > 10 µM (inactive)
GI50 (IGROV-1): > 10 µM (inactive)
GI50 (LOX IMVI): > 10 µM (inactive)
GI50 (DU-145): > 10 µM (inactive)
GI50 (Hs-578T): > 10 µM (inactive)

CCOC(=O)CSc1nc2ccccc2c(=O)n1N
GI50 (SNB-75): > 100 µM (inactive)
GI50 (SN12C): 63.1 µM (inactive)
GI50 (SK-MEL-5): > 100 µM (inactive)
GI50 (HCT-15): > 100 µM
GI50 (SF-539): > 100 µM (inactive)
GI50 (UACC-62): > 100 µM (inactive)
GI50 (U-251): > 100 µM (inactive)
GI50 (CAKI-1): > 100 µM (inactive)
GI50 (NCI/ADR-RES): > 100 µM (inactive)
GI50 (M14): > 100 µM (inactive)
GI50 (BT-549): > 100 µM (inactive)
GI50 (SK-MEL-28): > 100 µM (inactive)
GI50 (ACHN): > 100 µM (inactive)
GI50 (MCF7): > 100 µM (inactive)
GI50 (HCT-116): > 100 µM (inactive)
GI50 (SF-268): > 100 µM (inactive)
GI50 (A549): 83 µM (inactive)
GI50 (RPMI-8226): > 100 µM (inactive)
GI50 (OVCAR-5): > 100 µM (inactive)
GI50 (T47D): > 100 µM (inactive)
GI50 (MDA-MB-435): > 100 µM (inactive)
GI50 (NCI-H23): > 100 µM (inactive)
GI50 (COLO 205): > 100 µM (inactive)
GI50 (MDA-MB-231): > 100 µM (inactive)
GI50 (NCI-H226): > 100 µM (inactive)
GI50 (MOLT-4): > 100 µM (inactive)
GI50 (HCC 2998): 37.6 µM (inactive)
GI50 (SR): > 100 µM (inactive)
GI50 (MDA-N): > 100 µM (inactive)
GI50 (TK-10): 83.2 µM (inactive)
GI50 (OVCAR-8): 32.8 µM (inactive)
GI50 (KM12): > 100 µM (inactive)
GI50 (UACC-257): > 100 µM (inactive)
GI50 (HT-29): 68.4 µM (inactive)
GI50 (Malme-3M): > 100 µM (inactive)
GI50 (EKVX): > 100 µM (inactive)
GI50 (A498): > 100 µM (inactive)
GI50 (HOP-92): > 100 µM (inactive)
GI50 (SW-620): > 100 µM (inactive)
GI50 (SK-MEL-2): > 100 µM (inactive)
GI50 (786-0): > 100 µM (inactive)
GI50 (OVCAR-3): > 100 µM (inactive)
GI50 (K562): > 100 µM (inactive)
GI50 (UO-31): > 100 µM (inactive)
GI50 (PC-3): > 100 µM (inactive)
GI50 (SF-295): > 100 µM (inactive)
GI50 (SNB-19): > 100 µM (inactive)
GI50 (NCI-H522): > 100 µM (inactive)
GI50 (NCI-H460): 83.4 µM (inactive)
GI50 (RXF 393): > 100 µM (inactive)
GI50 (OVCAR-4): > 100 µM (inactive)
GI50 (IGROV-1): > 100 µM (inactive)
GI50 (LOX IMVI): > 100 µM (inactive)
GI50 (DU-145): 40.9 µM (inactive)
GI50 (Hs-578T): > 100 µM (inactive)
